Source: PubChem BioAssay (NCI)
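In this assay, cells in 96-well plates receive the compound at five concentrations for 48 hours. Endpoints are linearly interpolated between the surrounding concentrations. GI50 is the concentration that inhibits growth by half. TGI: concentration producing complete growth inhibition.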

Legend:
Assay in all cases: inhibition of tumour cell growth, NCI panel, 48 h
[1] = tested on: LOX IMVI melanoma
[2] = tested on: UO-31 renal
[3] = tested on: SF-268 CNS
[4] = tested on: SK-OV-3 ovarian
[5] = tested on: SR leukemia
[6] = tested on: U251 CNS
[7] = tested on: RXF 393 renal
[8] = tested on: KM12 colon
[9] = tested on: NCI-H226 lung
[10] = tested on: SK-MEL-5 melanoma
[11] = tested on: A498 renal
[12] = tested on: MOLT-4 leukemia
[13] = tested on: PC-3 prostate
[14] = tested on: HL-60(TB) leukemia
[15] = tested on: HT29 colon
[16] = tested on: 786-0 renal
[17] = tested on: NCI-H23 lung
[18] = tested on: SN12C renal
[19] = tested on: SK-MEL-2 melanoma
[20] = tested on: NCI-H460 lung
[21] = tested on: BT-549 breast
[22] = tested on: IGROV1 ovarian
[23] = tested on: SF-295 CNS
[24] = tested on: MALME-3M melanoma
[25] = tested on: HCC-2998 colon
[26] = tested on: HCT-116 colon
[27] = tested on: NCI-H522 lung
[28] = tested on: SF-539 CNS
[29] = tested on: COLO 205 colon
[30] = tested on: UACC-257 melanoma
[31] = tested on: OVCAR-4 ovarian
[32] = tested on: EKVX NSCLC
[33] = tested on: T-47D breast
[34] = tested on: OVCAR-3 ovarian
[35] = tested on: K-562 leukemia
[36] = tested on: OVCAR-5 ovarian
[37] = tested on: HOP-62 NSCLC
[38] = tested on: SNB-75 CNS
[39] = tested on: MCF7 breast
[40] = tested on: RPMI-8226 leukemia
[41] = tested on: SNB-19 CNS
[42] = tested on: SW-620 colon
[43] = tested on: MDA-MB-435
[44] = tested on: CAKI-1 renal
[45] = tested on: DU-145 prostate
[46] = tested on: TK-10 renal
[47] = tested on: ACHN renal
[48] = tested on: HOP-92 NSCLC
[49] = tested on: HCT-15 colon
[50] = tested on: MDA-MB-231 breast
[51] = tested on: OVCAR-8 ovarian
[52] = tested on: HS 578T breast
[53] = tested on: SK-MEL-28 melanoma
[54] = tested on: CCRF-CEM leukemia
[55] = tested on: M14 melanoma
[56] = tested on: UACC-62 melanoma
[57] = tested on: A549 NSCLC
[58] = tested on: NCI/ADR-RES ovarian

`CCOC(=O)/C=C(\C)Sc1cc(O)c2ccccc2c1O` gave a TGI [1] of 92.2 µM, a TGI [2] of 18.9 µM and a TGI [3] of 25 µM. For the same molecule, the TGI [4] was 66.4 µM, the TGI [5] was over 100 µM and the TGI [6] was 40.9 µM. For the same molecule, the TGI [7] was 31.9 µM, the TGI [8] was 75.4 µM and the TGI [9] was 61.3 µM. For the same molecule, the TGI [10] was 26.6 µM, the TGI [11] was 41.1 µM and the TGI [12] was over 100 µM. For the same molecule, the TGI [13] was 67.2 µM, the TGI [14] was 88.7 µM and the TGI [15] was 42.9 µM. For the same molecule, the TGI [16] was 44.2 µM, the TGI [17] was over 100 µM and the TGI [18] was 83.5 µM. It also gave a TGI [19] of 50.5 µM, a TGI [20] of 44.6 µM and a TGI [21] of 40.9 µM. The TGI [22] was 27.7 µM, the TGI [23] was 51.6 µM and the TGI [24] was 29.1 µM. The TGI [25] was 28.1 µM, the TGI [26] was over 100 µM and the TGI [27] was 24.9 µM. It also gave a TGI [28] of 45 µM, a TGI [29] of 35.1 µM and a TGI [30] of 35.6 µM. For the same molecule, the TGI [31] was 32 µM, the TGI [32] was 81.9 µM and the TGI [33] was 9.9 µM. The TGI [34] was over 100 µM, the TGI [35] was over 100 µM and the TGI [36] was 54.3 µM. The TGI [37] was 39.8 µM, the TGI [38] was 23.8 µM and the TGI [39] was 65.6 µM. It also gave a TGI [40] of over 100 µM, a TGI [41] of 34.1 µM and a TGI [42] of over 100 µM. It also gave a TGI [43] of 5.8 µM, a TGI [44] of 46.8 µM and a TGI [45] of over 100 µM. The TGI [46] was 53.8 µM, the TGI [47] was 29.7 µM and the TGI [48] was 62.4 µM. For the same molecule, the TGI [49] was 37.8 µM, the TGI [50] was 44.2 µM and the TGI [51] was 42.4 µM. The TGI [52] was over 100 µM, the TGI [53] was 30.4 µM and the TGI [54] was over 100 µM. The TGI [55] was 52.5 µM, the TGI [56] was 60.1 µM and the TGI [57] was 85.9 µM. It also gave a TGI [58] of 86.7 µM.

Molecule `CC(C)c1ccc(COCc2cc(CN3CCCC3)c(O)c3ncccc23)cc1` has a GI50 [1] of 0.334 µM, a TGI [1] of 1.4 µM and a GI50 [2] of 0.127 µM. It also gave a TGI [2] of 2.14 µM, a GI50 [3] of 0.673 µM and a TGI [3] of 7.98 µM. For the same molecule, the GI50 [4] was 0.639 µM, the TGI [4] was 4.53 µM and the GI50 [5] was 0.323 µM. It also gave a TGI [5] of 2.08 µM, a GI50 [6] of 0.466 µM and a TGI [6] of 2.45 µM. For the same molecule, the GI50 [7] was 0.878 µM, the TGI [7] was 3.45 µM and the GI50 [8] was 0.534 µM. It also gave a TGI [8] of 3.13 µM, a GI50 [9] of 0.912 µM and a TGI [9] of 3.19 µM. It also gave a GI50 [10] of 0.302 µM, a TGI [10] of 1.15 µM and a GI50 [11] of 0.778 µM. It also gave a TGI [11] of 3.81 µM, a GI50 [12] of 0.378 µM and a TGI [12] of 2.13 µM. The GI50 [13] was 0.657 µM, the TGI [13] was 11.2 µM and the GI50 [14] was 0.314 µM. For the same molecule, the TGI [14] was 1.4 µM, the GI50 [15] was 2.64 µM and the TGI [15] was 6.83 µM. For the same molecule, the GI50 [16] was 0.468 µM, the TGI [16] was 3.83 µM and the GI50 [17] was 0.708 µM. For the same molecule, the TGI [17] was 3.13 µM, the GI50 [18] was 0.825 µM and the TGI [18] was 4.6 µM. The GI50 [19] was 1.61 µM, the TGI [19] was 4.53 µM and the GI50 [20] was 0.395 µM. It also gave a TGI [20] of 1.47 µM, a GI50 [21] of 1.45 µM and a TGI [21] of 8.57 µM. For the same molecule, the GI50 [22] was 0.493 µM, the TGI [22] was 4.36 µM and the GI50 [23] was 1.18 µM. For the same molecule, the TGI [23] was 6.26 µM, the GI50 [24] was 1.45 µM and the TGI [24] was 8.12 µM. For the same molecule, the GI50 [25] was 1.58 µM, the TGI [25] was 6.03 µM and the GI50 [26] was 0.348 µM. It also gave a TGI [26] of 1.47 µM, a GI50 [27] of 0.287 µM and a TGI [27] of 1.11 µM. It also gave a GI50 [28] of 0.42 µM, a TGI [28] of 2.04 µM and a GI50 [29] of 3.34 µM. The TGI [29] was 11.9 µM, the GI50 [30] was 0.783 µM and the TGI [30] was 3.93 µM. For the same molecule, the GI50 [31] was 0.32 µM, the TGI [31] was 1.41 µM and the GI50 [32] was 0.746 µM. For the same molecule, the TGI [32] was 11.9 µM, the GI50 [33] was 0.398 µM and the TGI [33] was 4.37 µM. The GI50 [34] was 0.403 µM, the TGI [34] was 1.87 µM and the GI50 [35] was 0.374 µM. For the same molecule, the TGI [35] was 2.44 µM, the GI50 [36] was 1.43 µM and the TGI [36] was 13.5 µM. For the same molecule, the GI50 [37] was 0.367 µM, the TGI [37] was 5.04 µM and the GI50 [38] was 1.19 µM. For the same molecule, the TGI [38] was 11.5 µM, the GI50 [39] was 0.365 µM and the TGI [39] was 1.52 µM. It also gave a GI50 [40] of 0.601 µM, a TGI [40] of 2.72 µM and a GI50 [41] of 0.772 µM. It also gave a TGI [41] of 5.7 µM, a GI50 [42] of 0.471 µM and a TGI [42] of 2.38 µM. It also gave a GI50 [43] of 0.855 µM, a TGI [43] of 11.2 µM and a GI50 [44] of 0.146 µM. For the same molecule, the TGI [44] was 4.44 µM, the GI50 [45] was 0.77 µM and the TGI [45] was 9.72 µM. For the same molecule, the GI50 [46] was 0.409 µM, the TGI [46] was 12.6 µM and the GI50 [47] was 0.149 µM. It also gave a TGI [47] of 5.44 µM, a GI50 [48] of 1.67 µM and a TGI [48] of 11.7 µM. It also gave a GI50 [49] of 0.0655 µM, a TGI [49] of 2.07 µM and a GI50 [50] of 0.774 µM. The TGI [50] was 3.27 µM, the GI50 [51] was 0.43 µM and the TGI [51] was 2.15 µM. For the same molecule, the GI50 [52] was 1.72 µM, the TGI [52] was 7.54 µM and the GI50 [53] was 0.768 µM. The TGI [53] was 10.2 µM, the GI50 [54] was 0.398 µM and the TGI [54] was 3.91 µM. For the same molecule, the GI50 [55] was 0.351 µM, the TGI [55] was 1.99 µM and the GI50 [56] was 0.318 µM. The TGI [56] was 1.62 µM, the GI50 [57] was 0.645 µM and the TGI [57] was 8.31 µM. It also gave a GI50 [58] of 0.0508 µM and a TGI [58] of 0.84 µM.
